Assay [1] has as its target T1, Indoleamine 2,3-dioxygenase 1 (Homo sapiens, UniProt P14902). As to the kind of experiment: Inhibition of human recombinant indoleamine-2,3-dioxygenase expressed in Escherichia coli BL21 using L-tryptophan as substrate after 30 mins by microplate reader analysis.
Target sequence in this assay (P14902 whole entry): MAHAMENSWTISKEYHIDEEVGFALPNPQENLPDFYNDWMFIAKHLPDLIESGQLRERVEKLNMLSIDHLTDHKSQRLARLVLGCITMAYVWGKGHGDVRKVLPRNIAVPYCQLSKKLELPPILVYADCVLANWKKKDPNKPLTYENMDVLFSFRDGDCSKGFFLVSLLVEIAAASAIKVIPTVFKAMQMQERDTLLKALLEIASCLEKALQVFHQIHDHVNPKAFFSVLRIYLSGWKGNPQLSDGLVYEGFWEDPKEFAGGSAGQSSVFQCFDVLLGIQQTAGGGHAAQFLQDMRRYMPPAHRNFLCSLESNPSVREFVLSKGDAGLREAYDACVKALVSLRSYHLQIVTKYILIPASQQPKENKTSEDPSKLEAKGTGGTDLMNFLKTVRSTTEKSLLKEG
In assay [2] the target is T1, Indoleamine 2,3-dioxygenase 1. As to the kind of experiment: Ratio of IC50 for human recombinant indoleamine-2,3-dioxygenase expressed in Escherichia coli BL21 to IC50 for indoleamine-2,3-dioxygenase in human HEK293 cells.
Target sequence in this assay (P14902 whole entry, looked up): as the sequence (P14902 whole entry) above
For assay [3], the system named is T-cell. Description: Induction of BALB/c mouse LLC-stimulated T cell proliferation after 4 days by WST-1 method. It counts as functional, cell-based. Background: Tetrazolium dyes change colour on reduction, which living cells bring about.
Assay [4] concerns the target T1, Indoleamine 2,3-dioxygenase 1. Description: Reversal inhibition of human recombinant indoleamine-2,3-dioxygenase expressed in Escherichia coli BL21 using L-tryptophan as substrate by Dixon plot analysis.
Target sequence in this assay (P14902 whole entry, looked up): as the sequence (P14902 whole entry) above
The target is the same in assay [5]. Description: Inhibition of indoleamine-2,3-dioxygenase in human HEK293 cells assessed as N-formylkynurenine level after 5 hrs by spectrophotometric analysis. It counts as cell-based.
Target sequence in this assay (P14902 whole entry): as above
The target is the same in assay [6]. As to the kind of experiment: Uncompetitive inhibition of human recombinant indoleamine-2,3-dioxygenase expressed in Escherichia coli BL21 using L-tryptophan as substrate by Dixon plot analysis.
Target sequence in this assay (P14902 whole entry): as above
The subject of assay [7] is T-cell. Description: Ratio of 1-methyl tryptophan to compound for induction of BALB/c mouse LLC-stimulated T cell proliferation. It counts as functional.

The source made the active and inactive calls. The calls are words filed in the database; no cut-off is given here.

Turning to `c1ccc2[nH]nnc2c1` [BENZOTRIAZOLE], the IC50 in assay [1] (read-out: IC50) was 2570 µM.
Consider `Brc1ccccc1-c1cnn[nH]1`, for which the Ratio IC50 in assay [2] amounted to 3. In the assay on T-cell [3], the Activity entry was “Dose-dependent effect”. The inhibition result in assay [4] was “Active”.
Take `Clc1nn[nH]c1-c1ccccc1`: in assay [1], the IC50 entry was “Not Active”.
For the compound `Cc1ccc(-c2c[nH]nn2)cc1`, the IC50 result in assay [1] was “Not Active”.
With `Ic1nn[nH]c1-c1ccccc1`, in assay [1] (read-out: IC50), the IC50 stood at 1370 µM.
Regarding `COc1ccc(-c2c[nH]nn2)cc1`, the IC50 in assay [1] (read-out: IC50) came out at 6000 µM.
As for `Brc1ccccc1-c1c[nH]nn1`, the IC50 in assay [5] came out at 31.6 µM; in assay [1] (read-out: IC50), 148 µM. Besides, the inhibition constant Ki in assay [6] came to 18 µM.
In the case of `Clc1ccc(-c2c[nH]nn2)cc1`, in assay [1] (read-out: IC50), the IC50 stood at 817 µM.
In the case of `Brc1nn[nH]c1-c1ccccc1`, in assay [1], the IC50 entry is “Not Active”.
The same measure, in the same setting: the same measure for `Brc1ccc(-c2nn[nH]n2)cc1`: “Not Active”.
On to `Clc1ccccc1-c1cnn[nH]1`, for which, in assay [2], the Ratio IC50 came to 3. The Activity entry with T-cell [3] was “Dose-dependent effect”. For the same compound, the Ratio in the assay with T-cell [7] turned out to be 2. Moreover, the inhibition entry in assay [4] is “Active”.
In the case of `Brc1ccc(-c2c[nH]nn2)cc1`, in assay [1] (read-out: IC50), the IC50 is 1260 µM.
Regarding `Cc1ccc(-c2[nH]nnc2Br)cc1`, the IC50 in assay [1] (read-out: IC50) stood at 1030 µM.
For `Clc1ccccc1-c1c[nH]nn1`, the IC50 in assay [5] is 19.3 µM; in assay [1] (read-out: IC50), 86 µM. Besides, in assay [6], the Ki was determined as 14.5 µM.
Turning to `COc1ccccc1-c1c[nH]nn1`, the IC50 in assay [1] (read-out: IC50) amounted to 1030 µM.
As to `Fc1ccc(-c2c[nH]nn2)cc1`, the IC50 in assay [1] (read-out: IC50) worked out at 580 µM.
On to `c1cncc(-c2c[nH]nn2)c1`, for which the IC50 in assay [1] (read-out: IC50) was 708 µM.
`CCOC(=O)c1cn(-c2ccc(Cl)cc2)nn1`: in assay [1] (read-out: IC50), the IC50 stood at 2000 µM.
On the same count and under the same terms, the value for `O=[N+]([O-])c1ccc(-c2nn[nH]c2[N+](=O)[O-])cc1` was 533 µM.
With `On1nnc2ccccc21`, the IC50 entry in assay [1] is “Not Active”.
On the same count and under the same terms, the value for `COC(=O)c1ccc(-c2cnn[nH]2)cc1` was “Not Active”.
With `c1ccc(-c2cnn[nH]2)cc1`, the Activity result in the assay on T-cell [3] was “Dose-dependent effect”. For the same compound, in assay [4], the inhibition entry was “Active”.

Usually IC50 stands for the concentration that gives 50% inhibition. For orientation: Ki means a measure of affinity in units of concentration, obtained from inhibition or displacement.
